In ChEMBL document CHEMBL3988442, “University of Dundee, Small-Polar-MMV Screening Library” (2021):

How the values were obtained:
[1] = microbe, parasite or virus in culture; settings: Mycobacterium tuberculosis, 96 h, read-out: pIC50 (converted)
[2] = microbe, parasite or virus in culture; settings: Mycobacterium tuberculosis, 72 h, read-out: pIC50 (converted)

| SMILES | IC50 [1] [µM] | IC50 [2] [µM] |
| --- | --- | --- |
| COC(=O)[C@@H]1C[C@@H](O)CN1Cc1ncc(C(C)(C)C)o1 | > 501 | > 501 |
| NCCCc1nc(-c2ccc(F)cc2)no1 | 186 | 163 |
| Cc1ccnc(NCCS(=O)(=O)NCC2CCC2)c1 | 117 | 265 |
| c1cn(C2CCNCC2)nn1 | 409 | 354 |
| CCCC(C#N)NC(=O)c1ccn(-c2ccccc2)n1 (stereo not drawn) | > 501 | 294 |
| COc1ccc(C(=O)NC2=NCCS2)c(O)c1 | 185 | 456 |
| CC(C)Cc1cc(C(=O)N(C)Cc2cnccn2)on1 | > 501 | > 501 |
| NCCS(=O)(=O)N1CCc2ccccc21 | 240 | 149 |
| CC(C)COCC(O)CNc1nnc(C(C)C)s1 (stereo not drawn) | 86.9 | 111 |
| CN(C)C(=O)CSc1nnc(C(F)(F)F)s1 | 305 | 487 |
| CC(c1nc(COc2ccc(F)cc2)no1)S(C)(=O)=O (stereo not drawn) | 157 | 230 |
| CC(C)c1ccc(S(=O)(=O)C(C)C(N)=O)cc1 (stereo not drawn) | 190 | 284 |
| CC1COC2(CCN(C(=O)c3ccc(Cl)s3)CC2)O1 (stereo not drawn) | 45.1 | 25.7 |
| CCOC(=O)CCC(=O)c1ccc2c(c1)OCCO2 | 199 | 209 |
| CC(C)N(Cc1ccccn1)C(=O)c1cc(Cl)c[nH]1 | > 501 | > 501 |
| CC(C)N(C)S(=O)(=O)N(C)Cc1ccc(Br)o1 | 394 | 204 |
| COCc1ccccc1CNC(=O)c1nc(C)ns1 | 145 | 488 |
| CCC(CO)(CO)NCc1csc(-c2cccs2)n1 | > 501 | > 501 |
| COc1cccc(C(=O)NCc2ccoc2C)n1 | > 501 | 364 |
| NS(=O)(=O)C1CCN(Cc2ccc(Br)c(F)c2)C1 (stereo not drawn) | > 501 | 171 |
| CC(C)COc1cncc(NC(C)CO)n1 (stereo not drawn) | > 501 | > 501 |
| CCC(C(=O)Nc1cc2c(cc1C)OCO2)N(C)C (stereo not drawn) | > 501 | > 501 |

| SMILES | IC50 [1] [µM] | IC50 [2] [µM] |
| --- | --- | --- |
| CC(C)(C)OC(=O)N1CCN(C2CCC(N)CC2)CC1 (stereo not drawn) | > 501 | > 501 |
| O=C(NCCc1ccc(F)c(F)c1)N1CCCC(O)C1 (stereo not drawn) | > 501 | > 501 |
| Cc1cc(OC(F)F)c(C2NC(=O)CN2C)cc1C (stereo not drawn) | > 501 | > 501 |
| CC(O)(CNc1ncccc1F)C1CCCC1 (stereo not drawn) | 262 | 142 |
| Cc1cccc(NCCC(=O)NC2CCCC2)n1 | > 501 | 122 |
| CSCC(CCO)Nc1ncccc1C(F)(F)F (stereo not drawn) | > 501 | 253 |
| COc1cccc(S(=O)(=O)CCN2CCCC2CO)c1 (stereo not drawn) | 141 | 462 |
| NCCc1nsc2ccccc12 | 189 | 129 |
| O=C(NCc1[nH]ncc1Br)Nc1nc2c(s1)COCC2 | > 501 | 328 |
| COc1ccc(CCN)c(Cl)c1OC | > 501 | 265 |
| CC1CN(C(=O)c2cnsn2)c2cccc(Cl)c2O1 (stereo not drawn) | > 501 | 67.6 |
| O=C(CNc1cccc(CO)c1)NCc1ccc(Cl)s1 | > 501 | 134 |
| N[C@H]1CCN(S(=O)(=O)c2ccc(F)c(C(F)(F)F)c2)C1 | 171 | 100 |
| O=C(CCn1cccn1)N1CCc2sccc2C1 | > 501 | 117 |
| OC(CN1CCCSCC1)c1ccc(F)cc1 (stereo not drawn) | > 501 | > 501 |
| CN1CCC(NC(=O)c2coc(Br)c2)CC1=O (stereo not drawn) | > 501 | > 501 |
| COCCOCc1cccc(NC(=O)NC(C)C)c1 | > 501 | > 501 |
| O=C(Cc1cccnc1)NCCNc1cccc(Br)c1 | > 501 | 143 |
| CC(C)NC(=O)Nc1cc(C(F)(F)F)c[nH]c1=O | 109 | 92.8 |
| CC(=O)Nc1nc(C(=O)NCc2ccc(C)s2)cs1 | 268 | 224 |
| CC(C)Nc1ncccc1C(=O)Nc1nncs1 | > 501 | > 501 |
| CC(CO)Sc1ccc(S(=O)(=O)C(F)F)cc1 (stereo not drawn) | 158 | 459 |

| SMILES | IC50 [1] [µM] | IC50 [2] [µM] |
| --- | --- | --- |
| CCOCCN1CCN(Cc2nnc(OCC)s2)CC1 | > 501 | > 501 |
| c1snnc1CNCC1COC2(CCCCC2)O1 (stereo not drawn) | 268 | > 501 |
| CC(C)c1cccc(NC(=O)CN2CCC(O)CC2)c1 | 359 | 116 |
| O=C(CNC1CC1)NC[C@H]1CCc2ccccc2O1 | 156 | 130 |
| NCC(O)c1ccc(Cl)c(F)c1 (stereo not drawn) | > 501 | 252 |
| OCc1cnc2c(F)cccc2c1 | > 501 | > 501 |
| O=C(Cn1cnnn1)NCC1(c2ccccc2)CCC1 | > 501 | 304 |
| COC(=O)CCCC(=O)N1CCCc2ccc(F)cc21 | 277 | 213 |
| O=C(Nc1nncs1)c1ccccn1 | 139 | 36.5 |
| OCC1CCN(CCc2ccccc2)C1 (stereo not drawn) | 243 | 393 |
| OC(CN1CCn2ccnc2C1)c1cccc(F)c1 (stereo not drawn) | > 501 | > 501 |
| COc1cc(CCN)ccc1C | 277 | 303 |
| CCc1cc(C)c(C(=O)Nc2ccc(C(N)=O)nc2)o1 | 69.6 | 56.5 |
| CC(C)CNc1cccc(-n2cnnn2)c1 | 247 | 274 |
| CN(CCn1cnnc1)c1ccc2ccc(F)cc2n1 | 259 | 212 |
| O=C(NC1CC1)c1cccc(CNc2ccccn2)c1 | > 501 | 220 |
| N#Cc1nc(NCCSCCCO)ccc1Cl | 418 | 221 |
| CNC(=O)[C@@H](C)Nc1ccc(C(F)(F)F)cn1 | > 501 | > 501 |
| OCCCN1CCCN(Cc2ccc(F)cc2)CC1 | > 501 | 186 |
| CCOCC(C)Nc1ccc(C)c(S(C)(=O)=O)c1 (stereo not drawn) | 221 | 188 |
| CC(C)C(O)CCNC(=O)Cc1cccc(O)c1 (stereo not drawn) | > 501 | 430 |
| CCNc1cccc(OC)c1 | 144 | 109 |

| SMILES | IC50 [1] [µM] | IC50 [2] [µM] |
| --- | --- | --- |
| CC(C)CSCCSc1nnc(N)[nH]1 | > 501 | 240 |
| COc1ccc(NS(=O)(=O)N(C)C)c(Br)c1 | > 501 | > 501 |
| CS(=O)(=O)NCC(=O)Nc1ccc(-n2cccn2)cc1 | > 501 | > 501 |
| O=C(c1cnsn1)N1CCCSc2ccc(F)cc21 | 164 | 200 |
| COc1cccc(CNCCNc2cccc(C)n2)c1 | > 501 | 248 |
| NS(=O)(=O)NCC1CCN(c2cccc(Br)c2)C1 (stereo not drawn) | 230 | 247 |
| Cc1cccc(OCC(O)CN)c1 (stereo not drawn) | 345 | 179 |
| CCCS(=O)(=O)N(C)Cc1ccc(OCC)cn1 | 280 | 148 |
| COCC(=O)NCCc1cc(Cl)c2c(c1)OCCO2 | 176 | 216 |
| CCc1ccc(S(=O)(=O)N2CC[C@@H](N)C2)cc1CC | > 501 | > 501 |
| COC(=O)[C@H](C)NC(=O)C1(c2ccccc2F)CC1 | > 501 | 187 |
| COc1cccc(CNc2nc(C(C)C)nn2C)n1 | > 501 | 315 |
| CCOc1ccc(Cl)cc1CCNS(=O)(=O)N(C)C | 282 | 245 |
| O=C(CCn1cccn1)N1CCCCCC1 | > 501 | 110 |
| CCS(=O)(=O)N(C)CCCNc1ccc(C)c(C#N)n1 | 84.2 | 106 |
| CCC1(CC)CN(C(=O)NCCC(C)C)CCS1(=O)=O | 407 | > 501 |
| NCCc1cccc2cc[nH]c12 | 211 | 177 |
| CNC(=O)CN1CCC(OCCCc2ccccc2)C1 (stereo not drawn) | > 501 | 161 |
| O=C(CCN1CCCC1CO)NCc1ccccc1Cl (stereo not drawn) | > 501 | 460 |
| COCCC(C)NC(=O)Nc1ccc(C#N)cc1 (stereo not drawn) | 159 | 232 |
| Cc1cccc(NCCCNC(=O)c2cccs2)n1 | > 501 | > 501 |
| O=C1CCN(CCOc2cc(F)cc(Br)c2)CCN1 | 279 | 198 |

| SMILES | IC50 [1] [µM] | IC50 [2] [µM] |
| --- | --- | --- |
| O=C(CNc1ccc(Br)cc1)NCc1ncc[nH]1 | > 501 | 228 |
| O=C(c1cc(Br)c[nH]1)N1CCN2CCCCC2C1 (stereo not drawn) | > 501 | 232 |
| N#CCc1ccc(CN)cc1 | 135 | 182 |
| CC1Cc2ccccc2N1C(=O)c1ccccn1 (stereo not drawn) | > 501 | > 501 |
| O=C(NCC(=O)N1CCCC1)c1csc2ccccc12 | 71.2 | 43.9 |
| CC(C)(C#N)C(=O)NCCNc1cccc(Br)c1 | 206 | 267 |
| Cc1n[nH]cc1CNCCNc1ncc(Cl)cc1Cl | > 501 | 82.1 |
| CNCC(=O)NC(C)c1nc(-c2ccc(Br)cc2)no1 (stereo not drawn) | 261 | 197 |
| CC(C)Cn1ccnc1CNc1ncccc1F | 382 | 307 |
| COc1ccc(S(=O)(=O)N2CC(NCC3CC3)C2)cc1 | > 501 | 209 |
| COC(=O)CCCC(=O)N1CCC2(CCCC2)C1 | 110 | 180 |
| OC[C@@H]1CCCN1Cc1cccc(F)c1F | > 501 | > 501 |
| Cc1ccc(C(N)c2ccccn2)cc1 (stereo not drawn) | 191 | 90.7 |
| COc1cccc([C@@H]2C[C@H]2N)c1 | > 501 | 163 |
| O=C(c1ccco1)N1CCCN(Cc2cscn2)CC1 | > 501 | > 501 |
| O=S(=O)(CCNc1ccccn1)NCC1CCC1 | 213 | 307 |
| CC(C)S(=O)(=O)CCCn1nnc(-c2ccsc2)n1 | 94.9 | 56.7 |
| NC(=O)C(NC(=O)c1sccc1Br)c1ccccc1 (stereo not drawn) | > 501 | > 501 |
| CN(CCn1cccn1)c1cc(Br)ccn1 | 366 | 190 |
| Brc1ccc2c(c1)OCCNC2 | > 501 | > 501 |
| Cn1ccsc1=NC(=O)c1ccc(OCC(N)=O)cc1 | > 501 | > 501 |
